Results taken from US20170015555A1, “LONG-TERM PRESERVATION AND NOVEL APPLICATION OF CHLOROUS ACID AQUEOUS SOLUTION FORMULATION” (priority 2013, published 2017).

What was measured:
[1] = Available chlorine concentration after impregnating diluent in treatment sheet; type: physicochemical
Experimental: (1) The available chlorine concentration of the “chlorous acid aqueous solution formulation (see Example 1: Table 11)” was measured, and the formulation was diluted to an available chlorine concentration of 1000 ppm [chlorous acid (HClO2) concentration: 489 ppm] or 500 ppm [chlorous acid (HClO2) concentration: 245 ppm]. (2) The available chlorine concentration of sodium hypochlorite was measured, and the sodium hypochlorite was diluted to an available chlorine concentration of 1000 ppm or 500 ppm. (3) The available chlorine concentration of the diluted solution was measured to find the available chlorine concentration prior to contact with a treatment sheet. (4) Treatment sheets were stacked, rolled up and inserted into a 200 ml-capacity PET bottle. A solution diluted so that the weight ratio of treatment sheet: agent solution would be 1:3 was poured into the 200 ml-capacity PET bottle containing the treatment sheets. (5) After contact with treatment sheets, treatment sheets were pulled out from the 200 ml-capacity PET bottle immediately after contact, after 1 hour, after 2 hours, after 3 hours, after 12 hours, after 24 hours, after 48 hours (after 2 days), after 72 hours (after 3 days), and after 168 hours (after 7 days). The sheets were used as specimens for examining available chlorine concentrations. (6) Solutions from the treatment sheets, the specimens pulled out from the 200 ml-capacity PET bottle, were wrung out into a 100 mL beaker. The available chlorine concentration of the solution was measured.
1. About 5 g of solution that was wrung out from the specimen was collected in a triangular flask with a stopper. 2. After adding 10 mL of 10 w/w % potassium iodide to the triangular flask with a stopper, 10 mL of 10% sulfuric acid was added. 3. After sealing, the mixture was left standing for 15 minutes in the dark. 4. 0.1 mol/L sodium thiosulfate solution was added until the color became light yellow. About 1 mL of 1 w/w % starch solution was added, and 0.1 mol/L sodium thiosulfate solution was added until the color of the solution became colorless. 5. Chlorine titer was found by the following equation.
R; Chlorine titer value a; Amount of 0.1 mol/L sodium thiosulfate solution added (g) f; Factor of 0.1 mol/L sodium thiosulfate solution w; Weight of measured specimen solution (g) 0.0035; Amount of chlorine corresponding to 1 g of 0.1 mol/L sodium thiosulfate 100; Percentage

[2] = test system: Staphylococcus aureus IF0 12732; experiment: Permeability of pathogenic microbes when treatment sheets were laid on vomit; type: cell-based; parameters: unit not given here; conditions: 1000 ppm available chlorine
Description: (§1) 1) Chlorous acid aqueous solution formulation (see Example 1: Table 11) Treatment sheet (material: 100% cotton): (about 27×40 cm) *Impregnated at a ratio of weight of treatment sheet (g): amount of liquid (ml)=1:3 2) Imitation vomit (hereinafter, referred to as vomit) Miso solution: adjusted to pH 2 with hydrochloric acid 3) Test Microbes that were used E. coli: Escherichia coli IF03927 Staphylococcus aureus: Staphylococcus aureus IF0 12732 Thermoduric Microbes (Bacillus cereus): Bacillus cereus NBRC15305 Microbes of the genus Salmonella: Salmonella Enteritidis IF03313 Enterohemorrhagic Escherichia coli 0157: Escherichia coli 0157 Enterohemorrhagic Escherichia coli 0111: Escherichia coli 0111 Enterohemorrhagic Escherichia coli 026: Escherichia coli O26
(§2) Permeability of pathogenic microbes into a treatment sheet when treating vomit was examined to compare effects of preventing secondary contamination. (1) Imitation vomit is spread in an area about the size of an A4 sheet. (2) 30 agent solution-containing treatment sheets were laid thereon and left standing for 10 minutes. (3) Treatment sheets were removed one at a time from the top. After diluting with saline, the sample was spread in a petri dish and cultured.

[3] = test system: Thermoduric Microbes (Bacillus cereus): Bacillus cereus NBRC15305; experiment: as above; type: cell-based; parameters: unit not given here; conditions: 1000 ppm available chlorine
Description: as §1, §2

[4] = test system: E. coli: Escherichia coli IF03927; experiment: as above; type: cell-based; parameters: unit not given here; conditions: 1000 ppm available chlorine
Description: as §1, §2

OCl [Sodium Hypochlorite, sodium hypochlorite]
34 ppm: Available Chlorine Concentration ([1]; set concentration 1000, 504 hours of contact)
40 ppm: Available Chlorine Concentration ([1]; set concentration 1000, 168 hours of contact)
7.1 × 10^2: microbes in treatment sheet laid on imitation vomit ([2]; 10 sheets, Day 7 at 25° C.) | microbes in treatment sheet laid on imitation vomit ([3]; 10 sheets, Day 7 at 25° C.)
175 ppm: Available Chlorine Concentration ([1]; set concentration 500, 1 hour of contact)
631 ppm: Available Chlorine Concentration ([1]; set concentration 1000, 1 hour of contact)
>10^6: microbes in treatment sheet laid on imitation vomit ([2]; 1 sheet, Day 7 at 25° C.) | microbes in treatment sheet laid on imitation vomit ([2]; 2 sheets, Day 7 at 25° C.) | microbes in treatment sheet laid on imitation vomit ([2]; 3 sheets, Day 7 at 25° C.) | microbes in treatment sheet laid on imitation vomit ([2]; 4 sheets, Day 7 at 25° C.) | microbes in treatment sheet laid on imitation vomit ([2]; 5 sheets, Day 7 at 25° C.) | microbes in treatment sheet laid on imitation vomit ([2]; 6 sheets, Day 7 at 25° C.) | microbes in treatment sheet laid on imitation vomit ([3]; 1 sheet, Day 7 at 25° C.) | microbes in treatment sheet laid on imitation vomit ([3]; 2 sheets, Day 7 at 25° C.) | microbes in treatment sheet laid on imitation vomit ([3]; 3 sheets, Day 7 at 25° C.) | microbes in treatment sheet laid on imitation vomit ([3]; 4 sheets, Day 7 at 25° C.) | microbes in treatment sheet laid on imitation vomit ([3]; 5 sheets, Day 7 at 25° C.) | microbes in treatment sheet laid on imitation vomit ([3]; 6 sheets, Day 7 at 25° C.) | microbes in treatment sheet laid on imitation vomit ([4]; 1 sheet, Day 7 at 25° C.) | microbes in treatment sheet laid on imitation vomit ([4]; 2 sheets, Day 7 at 25° C.) | microbes in treatment sheet laid on imitation vomit ([4]; 3 sheets, Day 7 at 25° C.) | microbes in treatment sheet laid on imitation vomit ([4]; 4 sheets, Day 7 at 25° C.) | microbes in treatment sheet laid on imitation vomit ([4]; 5 sheets, Day 7 at 25° C.) | microbes in treatment sheet laid on imitation vomit ([4]; 6 sheets, Day 7 at 25° C.) | microbes in treatment sheet laid on imitation vomit ([4]; 8 sheets, Day 7 at 25° C.) | microbes in treatment sheet laid on imitation vomit ([4]; 10 sheets, Day 7 at 25° C.) | microbes in treatment sheet laid on imitation vomit ([4]; 20 sheets, Day 7 at 25° C.) | microbes in treatment sheet laid on imitation vomit ([4]; 30 sheets, Day 7 at 25° C.)
549 ppm: Available Chlorine Concentration ([1]; set concentration 500, before contact with treatment sheet)
37 ppm: Available Chlorine Concentration ([1]; set concentration 500, 168 hours of contact)
1045 ppm: Available Chlorine Concentration ([1]; set concentration 1000, before contact with treatment sheet)
1.1 × 10^4: microbes in treatment sheet laid on imitation vomit ([2]; 8 sheets, Day 7 at 25° C.) | microbes in treatment sheet laid on imitation vomit ([3]; 8 sheets, Day 7 at 25° C.)
89 ppm: Available Chlorine Concentration ([1]; set concentration 1000, 24 hours of contact)
515 ppm: Available Chlorine Concentration ([1]; set concentration 1000, 3 hours of contact)
20 ppm: Available Chlorine Concentration ([1]; set concentration 500, 720 hours of contact)
39 ppm: Available Chlorine Concentration ([1]; set concentration 500, 48 hours of contact) | Available Chlorine Concentration ([1]; set concentration 500, 72 hours of contact)
76 ppm: Available Chlorine Concentration ([1]; set concentration 1000, 48 hours of contact)
32 ppm: Available Chlorine Concentration ([1]; set concentration 500, 504 hours of contact)
144 ppm: Available Chlorine Concentration ([1]; set concentration 500, 3 hours of contact)
184 ppm: Available Chlorine Concentration ([1]; set concentration 1000, 12 hours of contact)
54 ppm: Available Chlorine Concentration ([1]; set concentration 1000, 72 hours of contact)
24 ppm: Available Chlorine Concentration ([1]; set concentration 1000, 720 hours of contact)
168 ppm: Available Chlorine Concentration ([1]; set concentration 500, 2 hours of contact)
68 ppm: Available Chlorine Concentration ([1]; set concentration 500, 24 hours of contact)
595 ppm: Available Chlorine Concentration ([1]; set concentration 1000, 2 hours of contact)
<10: microbes in treatment sheet laid on imitation vomit ([2]; 1 sheet, Day 0 at 25° C.) | microbes in treatment sheet laid on imitation vomit ([2]; 2 sheets, Day 0 at 25° C.) | microbes in treatment sheet laid on imitation vomit ([2]; 3 sheets, Day 0 at 25° C.) | microbes in treatment sheet laid on imitation vomit ([2]; 4 sheets, Day 0 at 25° C.) | microbes in treatment sheet laid on imitation vomit ([2]; 5 sheets, Day 0 at 25° C.) | microbes in treatment sheet laid on imitation vomit ([2]; 6 sheets, Day 0 at 25° C.) | microbes in treatment sheet laid on imitation vomit ([2]; 8 sheets, Day 0 at 25° C.) | microbes in treatment sheet laid on imitation vomit ([2]; 10 sheets, Day 0 at 25° C.) | microbes in treatment sheet laid on imitation vomit ([2]; 20 sheets, Day 0 at 25° C.) | microbes in treatment sheet laid on imitation vomit ([2]; 20 sheets, Day 7 at 25° C.) | microbes in treatment sheet laid on imitation vomit ([2]; 30 sheets, Day 0 at 25° C.) | microbes in treatment sheet laid on imitation vomit ([2]; 30 sheets, Day 7 at 25° C.) | microbes in treatment sheet laid on imitation vomit ([3]; 1 sheet, Day 0 at 25° C.) | microbes in treatment sheet laid on imitation vomit ([3]; 2 sheets, Day 0 at 25° C.) | microbes in treatment sheet laid on imitation vomit ([3]; 3 sheets, Day 0 at 25° C.) | microbes in treatment sheet laid on imitation vomit ([3]; 4 sheets, Day 0 at 25° C.) | microbes in treatment sheet laid on imitation vomit ([3]; 5 sheets, Day 0 at 25° C.) | microbes in treatment sheet laid on imitation vomit ([3]; 6 sheets, Day 0 at 25° C.) | microbes in treatment sheet laid on imitation vomit ([3]; 8 sheets, Day 0 at 25° C.) | microbes in treatment sheet laid on imitation vomit ([3]; 10 sheets, Day 0 at 25° C.) | microbes in treatment sheet laid on imitation vomit ([3]; 20 sheets, Day 0 at 25° C.) | microbes in treatment sheet laid on imitation vomit ([3]; 20 sheets, Day 7 at 25° C.) | microbes in treatment sheet laid on imitation vomit ([3]; 30 sheets, Day 0 at 25° C.) | microbes in treatment sheet laid on imitation vomit ([3]; 30 sheets, Day 7 at 25° C.) | microbes in treatment sheet laid on imitation vomit ([4]; 1 sheet, Day 0 at 25° C.) | microbes in treatment sheet laid on imitation vomit ([4]; 2 sheets, Day 0 at 25° C.) | microbes in treatment sheet laid on imitation vomit ([4]; 3 sheets, Day 0 at 25° C.) | microbes in treatment sheet laid on imitation vomit ([4]; 4 sheets, Day 0 at 25° C.) | microbes in treatment sheet laid on imitation vomit ([4]; 5 sheets, Day 0 at 25° C.) | microbes in treatment sheet laid on imitation vomit ([4]; 6 sheets, Day 0 at 25° C.) | microbes in treatment sheet laid on imitation vomit ([4]; 8 sheets, Day 0 at 25° C.) | microbes in treatment sheet laid on imitation vomit ([4]; 10 sheets, Day 0 at 25° C.) | microbes in treatment sheet laid on imitation vomit ([4]; 20 sheets, Day 0 at 25° C.) | microbes in treatment sheet laid on imitation vomit ([4]; 30 sheets, Day 0 at 25° C.)
690 ppm: Available Chlorine Concentration ([1]; set concentration 1000, immediately after contact)
91 ppm: Available Chlorine Concentration ([1]; set concentration 500, 12 hours of contact)
352 ppm: Available Chlorine Concentration ([1]; set concentration 500, immediately after contact)
